{"source": "patent US20260234144A1", "about": "(TAY THERAPEUTICS LIMITED, priority 2023, published 2026)", "key": {"[1]": {"system": "R213X mutation in the p53 gene, HDQ-P1 cells", "assay": "Read-through of R213X mutation in HDQ-P1 cells: truncated and full-length p53 by automated capillary electrophoresis western analysis", "assay_type": "cell-based", "settings": "Homo sapiens; for EC (50% of 200 uM G418 response): pC50% NMD: production of truncated p53, concentration giving 50% of the response of 200 μM G418, 24 h; for EC (100% of 200 uM G418 response): pC100% RT: production of full-length p53, concentration giving the same response as 200 μM G418, 24 h", "procedure": "The ability of compounds to promote read-through in cells was assessed using the HDQ-P1 cell line which contain the R213X mutation in the p53 gene. […] Changes in the protein levels of p21, a direct downstream target of p53, were also determined as evidence of functional p53 protein production.\nHDQ-P1 cells (R213X) were treated with DMSO (0.3%), or test article for 24 h at various concentrations. Cells were washed once with ice cold 1×PBS and lysed in M-Per protein extraction reagent (ThermoFisher), Benzonase® Nuclease and protease inhibitor mixture (Roche) centrifuged at 4° C. for 15 min at 16 000×g, the supernatants, termed cell extracts, were collected and total proteins were quantified with Bradford protein assay kit (ThermoFisher). Briefly, mixtures of cell lysates (protein concentration 0.5 mg/mL) and the fluorescent master mix were heated at 95° C. for 5 min. […] Signals were generated using BioTechne anti-mouse detection module and anti-rabbit NIR detection module. […] As an additional loading control, total protein levels were assessed with the ProteinSimple protein normalisation module. The data were acquired and analysed using the inbuilt Compass software (ProteinSimple) with the high dynamic range detection profile, which uses multiple substrate injections and exposure times. Electropherograms were converted to pseudo-blots and presented in figures for ease of visualization.\nConcentration effect curves for both the production of truncated and full-length p53 were analysed using non-linear regression using the CDD Vault from Collaborative Drug Discovery (Burlingame, CA). […] The bottom and top of the curves were constrained to 0 and the maximum measured response respectively. From the fitted curves, the software derived C100% or C50% values (the concentration giving the same or 50% of the response of 200 μM G418) for each compound. The negative logarithm of C50% or C100% is reported as pC50% NMD or pC100% RT for the production of truncated or full-length p53 respectively (Table 2)."}, "[2]": {"system": "R223X stop codon in the mutated luciferase gene, ADXC8 luciferase reporter cell line", "assay": "cells", "assay_type": "cell-based", "settings": "for Emax / EC (100% of 200 uM G418 response): 24 h, ADXC8 cells, 24 hours; for Emax: read-out: Fold Over Control, maximum fold response relative to 200 μM G418; for EC (100% of 200 uM G418 response): read-out: pC100%, negative logarithm of the concentration giving the same response as 200 μM G418; for pC100% response: assayed at a concentration of 300 μM, C100% = concentration giving the same response as 200 μM G418"}}, "data": [{"smiles": "CC(=O)Nc1ccccc1CN1CCC(Nc2nc(N)c3c(C)cc(C)nc3n2)CC1", "note": "[Example 486]", "values": [{"measurement": "EC (50% of 200 uM G418 response)", "setting": "[1]", "value": "1 to 10", "unit": "µM"}, {"measurement": "EC (100% of 200 uM G418 response)", "setting": "[1]", "value": "1 to 10", "unit": "µM"}, {"measurement": "Emax", "setting": "[2]", "value": "100 to 3000", "unit": "%"}, {"measurement": "EC (100% of 200 uM G418 response)", "setting": "[2]", "value": "0.1 to 1", "unit": "µM"}]}, {"smiles": "CNc1nc(N[C@H]2CNCC[C@H]2OC)nc2nc(C)cc(C)c12", "note": "[Example 516, N^2-((3S,4R)-4-methoxypiperidin-3-yl)-N^4,5,7-trimethylpyrido[2,3-d]pyrimidine-2,4-diamine]", "values": [{"measurement": "EC (50% of 200 uM G418 response)", "setting": "[1]", "value": "0.1 to 1", "unit": "µM"}, {"measurement": "EC (100% of 200 uM G418 response)", "setting": "[1]", "value": "0.1 to 1", "unit": "µM"}, {"measurement": "EC (100% of 200 uM G418 response)", "setting": "[2]", "value": "0.01 to 0.1", "unit": "µM"}]}, {"smiles": "Cc1c2c(nc3nc(NC4CCN(Cc5ccc(C#N)cc5O)CC4)nc(N)c13)CCC2", "note": "[Example 526, 4-((4-((4-amino-5-methyl-7,8-dihydro-6H-cyclopenta[5,6]pyrido[2,3-d]pyrimidin-2-yl)amino)piperidin-1-yl)methyl)-3-hydroxybenzonitrile]", "values": [{"measurement": "EC (50% of 200 uM G418 response)", "setting": "[1]", "value": "0.1 to 1", "unit": "µM"}, {"measurement": "EC (100% of 200 uM G418 response)", "setting": "[1]", "value": "1 to 10", "unit": "µM"}, {"measurement": "Emax", "setting": "[2]", "value": "100 to 3000", "unit": "%"}, {"measurement": "EC (100% of 200 uM G418 response)", "setting": "[2]", "value": "0.01 to 0.1", "unit": "µM"}]}, {"smiles": "Cc1nc2nc(NC3CCN(Cc4ccncc4)CC3)nc(N)c2c2c1CCC2", "note": "[Example 529]", "values": [{"measurement": "EC (50% of 200 uM G418 response)", "setting": "[1]", "value": "1 to 10", "unit": "µM"}, {"measurement": "Emax", "setting": "[2]", "value": "100 to 3000", "unit": "%"}, {"measurement": "EC (100% of 200 uM G418 response)", "setting": "[2]", "value": "0.1 to 1", "unit": "µM"}]}, {"smiles": "Cc1nc2nc(NC3CCN(Cc4cccc(F)c4O)CC3)nc(N)c2c2c1CCC2", "note": "[Example 531]", "values": [{"measurement": "EC (50% of 200 uM G418 response)", "setting": "[1]", "value": "1 to 10", "unit": "µM"}, {"measurement": "EC (100% of 200 uM G418 response)", "setting": "[1]", "value": "1 to 10", "unit": "µM"}, {"measurement": "Emax", "setting": "[2]", "value": "100 to 3000", "unit": "%"}, {"measurement": "EC (100% of 200 uM G418 response)", "setting": "[2]", "value": "0.1 to 1", "unit": "µM"}]}, {"smiles": "Cc1c2c(nc3nc(NC4CCN(Cc5ccccc5C(=O)O)CC4)nc(N)c13)CCC2", "note": "[Example 675]", "values": [{"measurement": "Emax", "setting": "[2]", "value": "0 to 100", "unit": "%"}, {"measurement": "EC (100% of 200 uM G418 response)", "setting": "[2]", "value": "> 31.6", "unit": "µM"}]}, {"smiles": "Cc1nc2nc(NC3CCN(C)CC3)nc(N)c2cc1-c1cnn(C)c1", "note": "[Example 677]", "values": [{"measurement": "Emax", "setting": "[2]", "value": "0 to 100", "unit": "%"}, {"measurement": "EC (100% of 200 uM G418 response)", "setting": "[2]", "value": "> 100", "unit": "µM"}]}, {"smiles": "Cc1nc2nc(NC3CCN(C)CC3)nc(N)c2c(C)c1-c1cnn(C)c1", "note": "[Example 678]", "values": [{"measurement": "Emax", "setting": "[2]", "value": "0 to 100", "unit": "%"}, {"measurement": "EC (100% of 200 uM G418 response)", "setting": "[2]", "value": "> 100", "unit": "µM"}]}, {"smiles": "CN1CCC(Nc2nc(N)c3cc(-c4cnn(C)c4)cnc3n2)CC1", "note": "[Example 679]", "values": [{"measurement": "Emax", "setting": "[2]", "value": "0 to 100", "unit": "%"}, {"measurement": "EC (100% of 200 uM G418 response)", "setting": "[2]", "value": "> 100", "unit": "µM"}]}, {"smiles": "Cc1c2c(nc3nc(NC4CCN(Cc5ccccc5O)CC4)cc(N)c13)CCC2", "note": "[Example 680]", "values": [{"measurement": "Emax", "setting": "[2]", "value": "100 to 3000", "unit": "%"}, {"measurement": "EC (100% of 200 uM G418 response)", "setting": "[2]", "value": "0.01 to 0.1", "unit": "µM"}]}, {"smiles": "CNc1nc(N[C@H]2CN(C)C[C@@H]2OC(=O)C(C)(C)C)nc2nc3c(c(C)c12)CCC3", "note": "[Example 681]", "values": [{"measurement": "Emax", "setting": "[2]", "value": "100 to 3000", "unit": "%"}, {"measurement": "EC (100% of 200 uM G418 response)", "setting": "[2]", "value": "0.1 to 1", "unit": "µM"}]}, {"smiles": "CCC(=O)O[C@H]1CN(C)C[C@@H]1Nc1nc(NC)c2c(C)c3c(nc2n1)CCC3", "note": "[Example 682]", "values": [{"measurement": "Emax", "setting": "[2]", "value": "100 to 3000", "unit": "%"}, {"measurement": "EC (100% of 200 uM G418 response)", "setting": "[2]", "value": "0.1 to 1", "unit": "µM"}]}, {"smiles": "CNc1nc(N[C@H]2CN(C)C[C@@H]2OC(C)=O)nc2nc3c(c(C)c12)CCC3", "note": "[Example 683, (3S,4S)-1-methyl-4-((5-methyl-4-(methylamino)-7,8-dihydro-6H-cyclopenta[5,6]pyrido[2,3-d]pyrimidin-2-yl)amino)pyrrolidin-3-yl acetate]", "values": [{"measurement": "Emax", "setting": "[2]", "value": "100 to 3000", "unit": "%"}, {"measurement": "EC (100% of 200 uM G418 response)", "setting": "[2]", "value": "0.1 to 1", "unit": "µM"}]}, {"smiles": "CNc1nc(N[C@H]2CN(C)C[C@@H]2OC(=O)C(C)C)nc2nc3c(c(C)c12)CCC3", "note": "[Example 684, (3S,4S)-1-methyl-4-((5-methyl-4-(methylamino)-7,8-dihydro-6H-cyclopenta[5,6]pyrido[2,3-d]pyrimidin-2-yl)amino)pyrrolidin-3-yl isobutyrate]", "values": [{"measurement": "Emax", "setting": "[2]", "value": "100 to 3000", "unit": "%"}, {"measurement": "EC (100% of 200 uM G418 response)", "setting": "[2]", "value": "0.1 to 1", "unit": "µM"}]}, {"smiles": "CNc1nc(N[C@H]2CN(C)C[C@@H]2OC(=O)OC(C)(C)C)nc2nc3c(c(C)c12)CCC3", "note": "[Example 685, tert-butyl ((3S,4S)-1-methyl-4-((5-methyl-4-(methylamino)-7,8-dihydro-6H-cyclopenta[5,6]pyrido[2,3-d]pyrimidin-2-yl)amino)pyrrolidin-3-yl) carbonate]", "values": [{"measurement": "Emax", "setting": "[2]", "value": "100 to 3000", "unit": "%"}, {"measurement": "EC (100% of 200 uM G418 response)", "setting": "[2]", "value": "0.1 to 1", "unit": "µM"}]}, {"smiles": "Nc1nc(N)c2cccnc2n1", "note": "[pyrido[2,3-d]pyrimidine-2,4-diamine, reference compound]", "values": [{"measurement": "Emax", "setting": "[2]", "value": "0 to 100", "unit": "%"}, {"measurement": "EC (100% of 200 uM G418 response)", "setting": "[2]", "value": "> 100", "unit": "µM"}, {"measurement": "pC100% response", "setting": "[2]", "value": "not reached"}]}, {"smiles": "Nc1nc(N)c2nc(-c3ccccc3)c(N)nc2n1", "note": "[triamterene, reference compound]", "values": [{"measurement": "Emax", "setting": "[2]", "value": "0 to 100", "unit": "%"}, {"measurement": "EC (100% of 200 uM G418 response)", "setting": "[2]", "value": "> 100", "unit": "µM"}, {"measurement": "pC100% response", "setting": "[2]", "value": "not reached"}]}]}
